Measured values reported in ChEMBL document CHEMBL2029277, “Discovery of XL413, a potent and selective CDC7 inhibitor” (Bioorg Med Chem Lett, 2012).
One block for each molecule: values may come before it.

Tests used:
[1] = target: T1, Cell division cycle 7-related protein kinase (Homo sapiens, UniProt O00311); experiment: Inhibition of N-terminus Myc-tagged human CDC7 expressed in Escherichia coli by chemiluminescence assay in presence of ATP
[2] = target: Casein kinase II alpha/beta (Homo sapiens, UniProt P68400); experiment: Inhibition of human tertrameric CK2alphabeta holoenzyme using casein as substrate after 1 to 2 hrs by chemiluminescence assay in presence of 2 uM ATP; type: protein-complex assay
[3] = target: Serine/threonine-protein kinase pim-1 (Homo sapiens, UniProt P11309); experiment: Inhibition of N-terminus His-tagged human PIM1 expressed in Escherichia coli using AKRRRLSA as substrate after 1 to 2 hrs by chemiluminescence assay
[4] = target: T1, Cell division cycle 7-related protein kinase; experiment: Inhibition of CDC7 in human MDA-MB-231T cells assessed as inhibition of MCM2 phosphorylation at Ser53 after 4 hrs; type: cell-based
Caco-2 [5] = experiment: Induction of apoptosis in human Caco2 cells assessed as increase in caspase 3/7 activity; type: functional, cell-based
Caco-2 [6] = experiment: Antiproliferative activity against human Caco2 cells assessed as inhibition of anchorage-independent growth in soft agar; type: functional, cell-based
[7] = Cmax in rat at 3 mg/kg, po; type: ADME, organism-based; set-up: dose 3 mg/kg, route oral; conditions: in vivo
[8] = AUC in rat at 3 mg/kg, po; type: ADME, organism-based; set-up: dose 3 mg/kg, route oral; conditions: plasma
[9] = Clearance in rat; type: ADME, organism-based; conditions: in vivo
[10] = Volume of distribution at steady state in rat; type: ADME, organism-based; conditions: in vivo, read-out: Vdss
[11] = Half life in rat; type: ADME, organism-based; conditions: in vivo
[12] = Oral bioavailability in rat at 3 mg/kg; type: ADME, organism-based; conditions: in vivo
Mus musculus [13] = experiment: Inhibition of CDC7-mediated MCM2 phosphorylation at Ser40/41 in human Caco2 cells xenografted in athymic nude mouse at 3 mg/kg, po after 4 hrs by Western blot analysis; type: functional; conditions: Caco-2, 4 h
Mus musculus [14] = experiment: Inhibition of CDC7-mediated MCM2 phosphorylation at Ser40/41 in human Caco2 cells xenografted in po dosed athymic nude mouse by after 4 hrs Western blot analysis; type: functional; conditions: Caco-2, po
[15] = Plasma concentration in athymic nude mouse bearing human Caco2 cells at 3 mg/kg, po measured after 4 hrs; type: ADME, organism-based, Caco-2; set-up: dose 3 mg/kg, route oral
[16] = Plasma concentration in athymic nude mouse bearing human Caco2 cells at 10 mg/kg, po measured after 4 hrs; type: ADME, organism-based, Caco-2; set-up: dose 10 mg/kg, route oral
[17] = Plasma concentration in athymic nude mouse bearing human Caco2 cells at 30 mg/kg, po measured after 4 hrs; type: ADME, organism-based, Caco-2; set-up: dose 30 mg/kg, route oral
[18] = Plasma concentration in athymic nude mouse bearing human Caco2 cells at 100 mg/kg, po measured after 4 hrs; type: ADME, organism-based, Caco-2; set-up: dose 100 mg/kg, route oral
[19] = Drug uptake in tumor of Caco2 cells xenografted athymic nude mouse at 3 mg/kg, po measured after 4 hrs; type: ADME, organism-based, Neoplasm, Caco-2; set-up: dose 3 mg/kg, route oral; conditions: read-out: Drug uptake
[20] = Drug uptake in tumor of Caco2 cells xenografted athymic nude mouse at 10 mg/kg, po measured after 4 hrs; type: ADME, organism-based, Neoplasm, Caco-2; set-up: dose 10 mg/kg, route oral; conditions: read-out: Drug uptake
[21] = Drug uptake in tumor of Caco2 cells xenografted athymic nude mouse at 30 mg/kg, po measured after 4 hrs; type: ADME, organism-based, Neoplasm, Caco-2; set-up: dose 30 mg/kg, route oral; conditions: read-out: Drug uptake
[22] = Drug uptake in tumor of Caco2 cells xenografted athymic nude mouse at 100 mg/kg, po measured after 4 hrs; type: ADME, organism-based, Neoplasm, Caco-2; set-up: dose 100 mg/kg, route oral; conditions: read-out: Drug uptake
Caco-2 [23] = experiment: Antitumor activity against human Caco2 cells xenografted in athymic nude mouse assessed as tumor growth inhibition at 3 mg/kg, po QD administered for 14 days; type: functional; conditions: Caco-2, 336 h, read-out: GI
Caco-2 [24] = experiment: Antitumor activity against human Caco2 cells xenografted in athymic nude mouse assessed as tumor growth inhibition at 10 mg/kg, po QD administered for 14 days; type: functional; conditions: Caco-2, 336 h, read-out: GI
Caco-2 [25] = experiment: Antitumor activity against human Caco2 cells xenografted in athymic nude mouse assessed as tumor growth inhibition at 30 mg/kg, po QD administered for 14 days; type: functional; conditions: Caco-2, 336 h, read-out: GI
Caco-2 [26] = experiment: Antitumor activity against human Caco2 cells xenografted in athymic nude mouse assessed as tumor growth inhibition at 100 mg/kg, po QD administered for 14 days; type: functional; conditions: Caco-2, 336 h, read-out: GI
Caco-2 [27] = experiment: Antitumor activity against human Caco2 cells xenografted in athymic nude mouse assessed as tumor growth inhibition at 30 mg/kg, po BID administered for 14 days; type: functional; conditions: Caco-2, 336 h, read-out: GI
Caco-2 [28] = experiment: Antitumor activity against human Caco2 cells xenografted in athymic nude mouse assessed as tumor growth inhibition at 100 mg/kg, po Q2D administered for 14 days; type: functional; conditions: Caco-2, 336 h, read-out: GI
Caco-2 [29] = experiment: Antitumor activity against human Caco2 cells xenografted in athymic nude mouse assessed as tumor regression at 100 mg/kg, po QD administered for 14 days; type: functional
Caco-2 [30] = experiment: Antitumor activity against human Caco2 cells xenografted in athymic nude mouse assessed as tumor regression at 30 mg/kg, po BID administered for 14 days; type: functional
Caco-2 [31] = experiment: Antitumor activity against human Caco2 cells xenografted in athymic nude mouse assessed as tumor regression at 100 mg/kg, po Q2D administered for 14 days; type: functional
Mus musculus [32] = experiment: Toxicity in athymic nude mouse bearing human Caco2 cells assessed as decrease in body weight at 3 mg/kg, po QD administered for 14 days; type: organism-based, Caco-2; set-up: dose 3 mg/kg, route oral; scale not given: the % may be the effect or the level left; conditions: in vivo, 336 h
Mus musculus [33] = experiment: Toxicity in athymic nude mouse bearing human Caco2 cells assessed as decrease in body weight at 10 mg/kg, po QD administered for 14 days; type: organism-based, Caco-2; set-up: dose 10 mg/kg, route oral; scale not given: the % may be the effect or the level left; conditions: in vivo, 336 h
Mus musculus [34] = experiment: Toxicity in athymic nude mouse bearing human Caco2 cells assessed as decrease in body weight at 30 mg/kg, po QD administered for 14 days; type: organism-based, Caco-2; set-up: dose 30 mg/kg, route oral; scale not given: the % may be the effect or the level left; conditions: in vivo, 336 h
Mus musculus [35] = experiment: Toxicity in athymic nude mouse bearing human Caco2 cells assessed as decrease in body weight at 100 mg/kg, po QD administered for 14 days; type: organism-based, Caco-2; set-up: dose 100 mg/kg, route oral; scale not given: the % may be the effect or the level left; conditions: in vivo, 336 h
Mus musculus [36] = experiment: Toxicity in athymic nude mouse bearing human Caco2 cells assessed as decrease in body weight at 30 mg/kg, po BID administered for 14 days; type: organism-based, Caco-2; set-up: dose 30 mg/kg, route oral; scale not given: the % may be the effect or the level left; conditions: in vivo, 336 h
Mus musculus [37] = experiment: Toxicity in athymic nude mouse bearing human Caco2 cells assessed as decrease in body weight at 100 mg/kg, po Q2D administered for 14 days; type: organism-based, Caco-2; set-up: dose 100 mg/kg, route oral; scale not given: the % may be the effect or the level left; conditions: in vivo, 336 h
Cytochrome P450 3A4 = Cytochrome P450 3A4 (Homo sapiens, UniProt P08684); experiment: Inhibition of CYP3A4; type: ADME
Cytochrome P450 2C9 = Cytochrome P450 2C9 (Homo sapiens, UniProt P11712); experiment: Inhibition of CYP2C9; type: ADME
Cytochrome P450 2D6 = Cytochrome P450 2D6 (Homo sapiens, UniProt P10635); experiment: Inhibition of CYP2D6; type: ADME
Cytochrome P450 2C19 = Cytochrome P450 2C19 (Homo sapiens, UniProt P33261); experiment: Inhibition of CYP2C19; type: ADME
Cytochrome P450 1A2 = target: T2, Cytochrome P450 1A2 (Homo sapiens, UniProt P05177); experiment: Inhibition of CYP1A2; type: ADME
T2 sequence (P05177 whole entry): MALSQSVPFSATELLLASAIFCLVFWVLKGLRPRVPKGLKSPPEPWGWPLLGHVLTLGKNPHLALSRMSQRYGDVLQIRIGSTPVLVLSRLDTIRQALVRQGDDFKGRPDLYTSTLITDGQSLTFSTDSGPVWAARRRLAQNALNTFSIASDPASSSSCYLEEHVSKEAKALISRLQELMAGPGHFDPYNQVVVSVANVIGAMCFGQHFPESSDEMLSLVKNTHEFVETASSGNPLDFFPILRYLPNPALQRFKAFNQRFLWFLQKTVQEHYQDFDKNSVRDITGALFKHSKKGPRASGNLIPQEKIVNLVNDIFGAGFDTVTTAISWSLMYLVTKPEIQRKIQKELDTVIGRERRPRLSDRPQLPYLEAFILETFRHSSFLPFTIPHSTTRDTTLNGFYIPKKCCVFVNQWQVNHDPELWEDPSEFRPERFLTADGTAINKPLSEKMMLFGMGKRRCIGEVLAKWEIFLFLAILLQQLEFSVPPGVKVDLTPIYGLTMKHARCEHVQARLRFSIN

[38] = Plasma concentration in mouse at 100 mg/kg, po measured after 1 hr; type: ADME, organism-based; set-up: dose 100 mg/kg, route oral
[39] = Plasma concentration in mouse at 100 mg/kg, po measured after 4 hrs; type: ADME, organism-based; set-up: dose 100 mg/kg, route oral
[40] = target: T1, Cell division cycle 7-related protein kinase; experiment: Inhibition of CDC7 in human Caco2 cells assessed as inhibition of MCM2 phosphorylation at Ser53 after 4 hrs; type: cell-based, Caco-2
Caco-2 [41] = experiment: Antiproliferative activity against human Caco2 cells after 3 days by BrdU incorporation assay; type: functional, cell-based; conditions: Caco-2, 72 h
Caco-2 [42] = experiment: Antiproliferative activity against human Caco2 cells assessed as decrease in cell viability after 3 days by Cell Titer-Glo assay; type: functional, cell-based; conditions: Caco-2, 72 h

T1 sequence (O00311 whole entry): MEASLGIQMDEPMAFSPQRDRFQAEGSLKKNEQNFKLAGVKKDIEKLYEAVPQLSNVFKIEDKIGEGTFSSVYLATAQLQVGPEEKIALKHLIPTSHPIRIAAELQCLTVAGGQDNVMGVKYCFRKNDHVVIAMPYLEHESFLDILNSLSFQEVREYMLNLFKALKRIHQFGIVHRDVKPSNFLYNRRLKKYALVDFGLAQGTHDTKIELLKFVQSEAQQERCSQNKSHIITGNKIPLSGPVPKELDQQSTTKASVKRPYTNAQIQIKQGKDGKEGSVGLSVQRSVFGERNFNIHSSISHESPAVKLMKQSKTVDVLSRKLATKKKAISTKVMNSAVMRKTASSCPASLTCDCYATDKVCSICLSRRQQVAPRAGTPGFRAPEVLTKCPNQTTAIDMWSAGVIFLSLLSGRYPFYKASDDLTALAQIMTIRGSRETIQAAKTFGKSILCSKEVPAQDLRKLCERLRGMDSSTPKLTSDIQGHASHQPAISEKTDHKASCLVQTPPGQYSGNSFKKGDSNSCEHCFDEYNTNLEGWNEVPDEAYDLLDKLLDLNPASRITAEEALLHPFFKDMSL
Chain of Casein kinase II alpha/beta (P67870 whole entry): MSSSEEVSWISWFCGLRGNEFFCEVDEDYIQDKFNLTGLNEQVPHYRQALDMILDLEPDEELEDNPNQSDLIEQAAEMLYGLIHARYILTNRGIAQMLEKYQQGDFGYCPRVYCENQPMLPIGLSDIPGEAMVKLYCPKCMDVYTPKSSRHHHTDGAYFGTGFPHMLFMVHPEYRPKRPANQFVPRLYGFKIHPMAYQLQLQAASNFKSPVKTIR
Chain of Casein kinase II alpha/beta (P68400 whole entry): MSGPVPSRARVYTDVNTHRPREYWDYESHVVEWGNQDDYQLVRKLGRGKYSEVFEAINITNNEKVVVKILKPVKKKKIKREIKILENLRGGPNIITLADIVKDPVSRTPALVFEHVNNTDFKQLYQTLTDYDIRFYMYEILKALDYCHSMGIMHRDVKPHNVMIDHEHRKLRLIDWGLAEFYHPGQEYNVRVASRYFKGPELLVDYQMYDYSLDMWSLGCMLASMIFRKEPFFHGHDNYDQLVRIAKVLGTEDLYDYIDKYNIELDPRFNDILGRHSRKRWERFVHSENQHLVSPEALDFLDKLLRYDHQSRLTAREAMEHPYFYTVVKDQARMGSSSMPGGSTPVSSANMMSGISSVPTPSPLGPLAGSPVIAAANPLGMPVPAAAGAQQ
Chain of Serine/threonine-protein kinase pim-1 (P11309 whole entry): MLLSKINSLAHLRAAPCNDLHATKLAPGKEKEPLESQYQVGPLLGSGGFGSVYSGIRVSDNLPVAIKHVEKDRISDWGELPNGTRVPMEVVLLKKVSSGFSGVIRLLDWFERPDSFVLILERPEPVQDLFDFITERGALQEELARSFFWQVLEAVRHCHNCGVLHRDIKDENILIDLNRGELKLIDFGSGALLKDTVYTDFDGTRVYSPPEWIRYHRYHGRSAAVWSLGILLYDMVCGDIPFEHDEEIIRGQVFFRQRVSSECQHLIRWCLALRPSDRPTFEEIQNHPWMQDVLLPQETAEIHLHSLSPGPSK
Chain of Cytochrome P450 3A4 (P08684 whole entry): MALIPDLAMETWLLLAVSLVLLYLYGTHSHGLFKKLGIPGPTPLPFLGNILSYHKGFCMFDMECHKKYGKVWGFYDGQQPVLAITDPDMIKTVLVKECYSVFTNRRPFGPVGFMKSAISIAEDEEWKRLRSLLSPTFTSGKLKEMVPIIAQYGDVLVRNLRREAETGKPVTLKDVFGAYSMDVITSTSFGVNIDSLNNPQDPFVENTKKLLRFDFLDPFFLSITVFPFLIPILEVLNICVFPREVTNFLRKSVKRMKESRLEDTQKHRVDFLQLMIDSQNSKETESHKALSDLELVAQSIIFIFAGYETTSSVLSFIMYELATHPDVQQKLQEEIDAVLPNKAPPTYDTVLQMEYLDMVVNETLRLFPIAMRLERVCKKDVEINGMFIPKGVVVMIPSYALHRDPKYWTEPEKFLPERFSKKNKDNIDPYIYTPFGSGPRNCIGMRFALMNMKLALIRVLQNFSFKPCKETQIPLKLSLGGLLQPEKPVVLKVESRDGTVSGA
Chain of Cytochrome P450 2C19 (P33261 whole entry): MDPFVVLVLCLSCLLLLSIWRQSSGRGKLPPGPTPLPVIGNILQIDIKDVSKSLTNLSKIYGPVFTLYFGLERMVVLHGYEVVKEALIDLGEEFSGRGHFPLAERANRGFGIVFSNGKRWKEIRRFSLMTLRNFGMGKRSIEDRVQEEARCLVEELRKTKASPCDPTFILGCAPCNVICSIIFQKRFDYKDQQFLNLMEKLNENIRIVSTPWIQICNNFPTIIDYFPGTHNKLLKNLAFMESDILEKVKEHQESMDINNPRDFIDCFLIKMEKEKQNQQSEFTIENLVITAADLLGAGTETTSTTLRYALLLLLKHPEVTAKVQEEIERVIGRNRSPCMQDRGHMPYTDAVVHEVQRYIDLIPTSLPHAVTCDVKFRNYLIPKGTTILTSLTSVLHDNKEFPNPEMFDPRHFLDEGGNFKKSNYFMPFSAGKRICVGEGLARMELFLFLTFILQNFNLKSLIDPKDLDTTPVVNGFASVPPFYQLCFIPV
Chain of Cytochrome P450 2C9 (P11712 whole entry): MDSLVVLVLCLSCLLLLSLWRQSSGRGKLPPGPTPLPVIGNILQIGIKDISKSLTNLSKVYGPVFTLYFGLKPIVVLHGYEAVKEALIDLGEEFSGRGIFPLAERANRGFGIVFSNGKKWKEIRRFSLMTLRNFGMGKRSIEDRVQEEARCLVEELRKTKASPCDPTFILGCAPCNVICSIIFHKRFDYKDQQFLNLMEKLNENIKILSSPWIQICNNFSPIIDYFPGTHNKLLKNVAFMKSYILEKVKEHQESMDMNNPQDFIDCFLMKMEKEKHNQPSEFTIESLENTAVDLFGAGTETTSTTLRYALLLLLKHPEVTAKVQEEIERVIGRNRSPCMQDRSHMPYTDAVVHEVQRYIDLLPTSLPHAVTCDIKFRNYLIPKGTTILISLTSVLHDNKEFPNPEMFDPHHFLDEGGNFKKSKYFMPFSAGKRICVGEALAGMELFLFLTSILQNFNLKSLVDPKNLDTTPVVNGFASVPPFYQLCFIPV
Chain of Cytochrome P450 2D6 (P10635 whole entry): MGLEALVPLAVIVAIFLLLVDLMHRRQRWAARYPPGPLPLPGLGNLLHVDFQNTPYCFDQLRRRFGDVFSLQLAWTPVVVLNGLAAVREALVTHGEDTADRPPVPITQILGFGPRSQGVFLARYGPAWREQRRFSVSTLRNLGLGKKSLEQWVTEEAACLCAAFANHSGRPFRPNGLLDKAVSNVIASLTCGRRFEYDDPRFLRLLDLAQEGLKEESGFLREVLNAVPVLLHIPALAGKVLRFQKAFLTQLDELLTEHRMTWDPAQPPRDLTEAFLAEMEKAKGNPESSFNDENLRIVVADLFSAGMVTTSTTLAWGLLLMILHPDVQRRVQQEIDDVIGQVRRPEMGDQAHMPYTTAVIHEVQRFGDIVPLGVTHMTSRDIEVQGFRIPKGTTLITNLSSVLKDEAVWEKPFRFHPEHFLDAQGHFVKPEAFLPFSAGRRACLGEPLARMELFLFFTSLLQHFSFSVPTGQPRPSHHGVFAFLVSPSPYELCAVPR

IC50 [1]: 2 µM | IC50 [2]: 1.5 µM
Compound: O=c1[nH]cnc2c1oc1ccc(Br)cc12

IC50 [1]: 0.0061 µM | IC50 [2]: 0.238 µM | IC50 [3]: 0.077 µM | IC50 [4]: 1.37 µM
Compound: COc1ccc2oc3c(=O)[nH]c([C@@H]4CCCN4)nc3c2c1

EC50 (Caco-2 [5]): 2.29 µM | IC50 (Caco-2 [6]): 0.715 µM | Cmax [7]: 8.61 µM | AUC [8]: 75 µM·h | clearance [9]: 0.117 L/h/kg | Vd [10]: 0.55 L/kg | half-life [11]: 2.32 h | bioavailability [12]: 95% | concentration at 4 h [15]: 11 µM | concentration at 4 h [16]: 40.1 µM | concentration at 4 h [17]: 82.2 µM | concentration at 4 h [18]: 186 µM | concentration at 4 h [19]: 3.2 µM | concentration at 4 h [20]: 13.1 µM | concentration at 4 h [21]: 32.1 µM | concentration at 4 h [22]: 71.4 µM | IC50 (Cytochrome P450 3A4): > 50 µM | IC50 (Cytochrome P450 2C9): > 50 µM | IC50 (Cytochrome P450 2D6): > 50 µM | IC50 (Cytochrome P450 2C19): > 50 µM | IC50 (Cytochrome P450 1A2): 6.9 µM | IC50 [1]: 0.0034 µM | IC50 [2]: 0.215 µM | IC50 [3]: 0.042 µM | IC50 [4]: 0.118 µM | concentration at 1 h [38]: 141 µM | concentration at 4 h [39]: 81 µM | IC50 [40]: 0.14 µM | IC50 (Caco-2 [41]): 2.69 µM | IC50 (Caco-2 [42]): 2.14 µM
Compound: O=c1[nH]c([C@@H]2CCCN2)nc2c1oc1ccc(Cl)cc12
inhibition in vivo at 3 mg/kg (Mus musculus [13]): 70% | ED50 (Mus musculus [14]): < 3 mg/kg | inhibition in vivo at 3 mg/kg (Caco-2 [23]): 8.7% | inhibition in vivo at 10 mg/kg (Caco-2 [24]): 36% | inhibition in vivo at 30 mg/kg (Caco-2 [25]): 83% | inhibition in vivo at 100 mg/kg (Caco-2 [26]): > 100% | inhibition in vivo at 30 mg/kg (Caco-2 [27]): > 100% | inhibition in vivo at 100 mg/kg (Caco-2 [28]): > 100% | Activity (Caco-2 [29]): 70% | Activity (Caco-2 [30]): 32% | Activity (Caco-2 [31]): 21% | Activity (Mus musculus [32]): 0.5% | Activity (Mus musculus [33]): 3.4% | Activity (Mus musculus [34]): 8.3% | Activity (Mus musculus [35]): 4.7% | Activity (Mus musculus [36]): 6.4% | Activity (Mus musculus [37]): 4.5%

concentration at 1 h [38]: 101 µM | concentration at 4 h [39]: 49 µM
Compound: O=c1[nH]c(CN2CC[C@H](O)C2)nc2c1oc1ccc(Br)cc12

IC50 [1]: 0.004 µM | IC50 [2]: 0.752 µM | IC50 [3]: 0.065 µM | IC50 [4]: 0.167 µM
Compound: O=c1[nH]c([C@@H]2C[C@@H](F)CN2)nc2c1oc1ccc(Cl)cc12

IC50 [1]: 9 µM
Compound: COc1ccc2oc3c(=O)[nH]c(CN4CC[C@H](O)C4)nc3c2c1
